Consider 4 molecules from patent publication US20020184656A1, “In vivo assay system for screening and validation of drugs and other substances” (priority 2001, published 2002).

Series [1] has as its system transgenic flies expressing human APC (hAPC/CBD) in developing eyes (using ey-GAL4). Put plainly: Drug screening on human APC-induced eye phenotypes in transgenic flies (drug in fly food). It counts as in vivo, Drosophila. The note with it: for Total number of flies with eye phenotypes (in parenthesis: total number of flies of right genotype) / Number of flies with eye phenotypic ranks 1-5 / Number of flies with eye phenotypic ranks 6-10 / Number of flies with eye phenotypic ranks 11-15 / Number of flies with eye phenotypic ranks 16-20: Ey-GAL4, hAPC/CBD. How it is done:
Table 1 Distribution of eye phenotypes induced by hAPC/CBD in different genetic backgrounds and in the presence of various compounds and other anti-cancer drugs. Numbers are from a representative experiment. Number in parenthesis in the last column indicates total number of the flies of right genotype.
(§1) In yet another embodiment of the present invention, LD50 is determined for each of the chemicals tested. At concentrations LD50 and below, none of the drugs induce any morphological phenotypes in wildtype flies. Thereafter, the effect of these drugs on transgenic flies expressing human APC in developing eyes (using ey-GAL4) is examined.
Eye phenotypes induced by human APC are arranged in the order of severity from 1 to 20. Human APC in wildtype background induced phenotypes of ranks 1-9. […] WT—wild type eye.
(§2) For drug screening, drugs (at different concentrations) were added to fly food at <50° C. and left over-night for drying. Care was taken to ensure homogenous mixing of the drug in the fly food. Blind-tests were carried out, wherein the vials with or without drugs were coded (with the help of other members of the lab). The crosses were always set-up in triplicates. The method of administering drugs described above is only an example and should not be limited to it as there can be other ways of administering drugs.

The next series concerns Drosophila. Put plainly: LD50 determination of the drugs in flies. The conditions noted are these: drug in fly food. It counts as in vivo. How it is done: as §1, §2
Where [2] appears, read: 500 micrograms/ml fly food, 59 flies of right genotype.
[3] abbreviates: 50 micrograms/ml fly food, 47 flies of right genotype.
Setting [4] is: 200 microgram/ml fly food, 121 flies of right genotype.
Setting [5] is: 200 micrograms/ml fly food, 61 flies of right genotype.

For the molecule `CN1C(C(=O)Nc2ccccn2)=C(O)c2ccccc2S1(=O)=O` [Pyroxicam], the “Total number of flies with eye phenotypes (in parenthesis: total number of flies of right genotype)” value (“Total number of flies” below) in series [1] (500 micrograms/ml fly food) is 21(59). Also, in series [1] (setting [2]), the “Number of flies with eye phenotypic ranks 1-5” value is 11, the “Number of flies with eye phenotypic ranks 6-10” value is listed as 7, the “Number of flies with eye phenotypic ranks 11-15” value amounted to 1 and the “Number of flies with eye phenotypic ranks 16-20” value is 2.
`O=c1[nH]cc(F)c(=O)[nH]1` [5-fluorouracil]: the “Total number of flies” value in series [1] (50 micrograms/ml fly food) is listed as 14(47). In series [1] (setting [3]), the “Number of flies with eye phenotypic ranks 6-10” value is listed as 4 and the “Number of flies with eye phenotypic ranks 11-15” value came to 1. Also, in series [1] (50 micrograms/ml fly food, 47 flies of right genotype, severity ranks 1 to 20), the “Number of flies with eye phenotypic ranks 1-5” value was determined as 9.
Regarding `COc1ccc2c(c1)c(CC(=O)O)c(C)n2C(=O)c1ccc(Cl)cc1` [Indomethacin], in series [1] (200 microgram/ml fly food), the “Total number of flies” value is listed as 47(121). Besides, in series [1] (setting [4]), the “Number of flies with eye phenotypic ranks 1-5” value is 12, the “Number of flies with eye phenotypic ranks 6-10” value was found to be 8, the “Number of flies with eye phenotypic ranks 11-15” value was determined as 16 and the “Number of flies with eye phenotypic ranks 16-20” value amounted to 11. Moreover, in series [1] (ey-GAL4, extent similar to the enhancement shown by Df(3R)by^62), the “Effect on human APC-induced eye phenotypes” value was “enhances human APC-induced eye phenotypes”. Further, in series [1] (ey-GAL4, human APC), the “Concentration dependence of the effect on human APC-induced eye phenotypes” value is “concentration dependent” and the “Concentration of maximum effect on human APC-induced eye phenotypes” value is 200 μg/ml of fly food. For the same molecule, in series [1] (human APC in wildtype background without drug: ranks 1-9, often resulting eyeless flies), the “Ranks of eye phenotypes observed (severity 1 to 20)” value was 1-20. In addition, in the series on Drosophila, the LD50 is on record as 250 μg/ml of fly food.
Regarding `CC(=O)Oc1ccccc1C(=O)O` [aspirin], the “Total number of flies” value in series [1] (200 micrograms/ml fly food) is recorded as 19(61). In series [1] (setting [5]), the “Number of flies with eye phenotypic ranks 1-5” value was found to be 13, the “Number of flies with eye phenotypic ranks 6-10” value amounted to 4 and the “Number of flies with eye phenotypic ranks 11-15” value was 2.
